Test results from ChEMBL document CHEMBL3608296, “Synthesis of sulfonamides incorporating piperazinyl-ureido moieties and their carbonic anhydrase I, II, IX and XII inhibitory activity” (Bioorg Med Chem Lett, 2015).

Assays:
Carbonic anhydrase 9 [1] = biological target: T1, Carbonic anhydrase 9 (Homo sapiens, UniProt Q16790)
Description: Inhibition of human carbonic anhydrase 9 preincubated for 15 mins by stopped flow CO2 hydration method

Carbonic anhydrase 9 [2] = biological target: T1, Carbonic anhydrase 9; details: at 0.001 µM
Description: Inhibition of human carbonic anhydrase 9 at 10^-9 M preincubated for 15 mins by stopped flow CO2 hydration method relative to control

Carbonic anhydrase 9 [3] = biological target: T1, Carbonic anhydrase 9; details: at 0.01 µM
Description: Inhibition of human carbonic anhydrase 9 at 10^-8 M preincubated for 15 mins by stopped flow CO2 hydration method relative to control

Carbonic anhydrase 9 [4] = biological target: T1, Carbonic anhydrase 9; details: at 0.1 µM
Description: Inhibition of human carbonic anhydrase 9 at 10^-7 M preincubated for 15 mins by stopped flow CO2 hydration method relative to control

Carbonic anhydrase 9 [5] = biological target: T1, Carbonic anhydrase 9; details: at 1 µM
Description: Inhibition of human carbonic anhydrase 9 at 10^-6 M preincubated for 15 mins by stopped flow CO2 hydration method relative to control

[6] = biological target: Carbonic anhydrase 12 (Homo sapiens) (UniProt O43570); details: at 0.001 µM
Chain of Carbonic anhydrase 12 (Homo sapiens) (O43570 whole entry): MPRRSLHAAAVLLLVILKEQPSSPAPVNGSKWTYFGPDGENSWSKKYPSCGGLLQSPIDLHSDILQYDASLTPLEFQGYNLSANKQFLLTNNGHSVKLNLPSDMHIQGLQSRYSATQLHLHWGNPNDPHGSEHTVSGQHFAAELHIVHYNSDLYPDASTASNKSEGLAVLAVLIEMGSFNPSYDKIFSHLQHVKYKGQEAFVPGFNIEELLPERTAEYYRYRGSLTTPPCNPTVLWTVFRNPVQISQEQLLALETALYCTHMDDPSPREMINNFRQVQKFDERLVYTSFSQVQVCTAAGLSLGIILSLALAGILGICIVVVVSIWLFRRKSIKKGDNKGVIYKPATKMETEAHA
Description: Inhibition of human carbonic anhydrase 12 at 10^-9 M preincubated for 15 mins by stopped flow CO2 hydration method relative to control

[7] = biological target: Carbonic anhydrase 12 (Homo sapiens) (UniProt O43570); details: at 0.01 µM
Description: Inhibition of human carbonic anhydrase 12 at 10^-8 M preincubated for 15 mins by stopped flow CO2 hydration method relative to control

[8] = biological target: Carbonic anhydrase 12 (Homo sapiens) (UniProt O43570); details: at 0.1 µM
Description: Inhibition of human carbonic anhydrase 12 at 10^-7 M preincubated for 15 mins by stopped flow CO2 hydration method relative to control

[9] = biological target: Carbonic anhydrase 12 (Homo sapiens) (UniProt O43570); details: at 1 µM
Description: Inhibition of human carbonic anhydrase 12 at 10^-6 M preincubated for 15 mins by stopped flow CO2 hydration method relative to control

Carbonic anhydrase 1 = Carbonic anhydrase 1 (Homo sapiens, UniProt P00915); test: Inhibition of human carbonic anhydrase 1 preincubated for 15 mins by stopped flow CO2 hydration method
Chain of Carbonic anhydrase 1 (P00915 whole entry): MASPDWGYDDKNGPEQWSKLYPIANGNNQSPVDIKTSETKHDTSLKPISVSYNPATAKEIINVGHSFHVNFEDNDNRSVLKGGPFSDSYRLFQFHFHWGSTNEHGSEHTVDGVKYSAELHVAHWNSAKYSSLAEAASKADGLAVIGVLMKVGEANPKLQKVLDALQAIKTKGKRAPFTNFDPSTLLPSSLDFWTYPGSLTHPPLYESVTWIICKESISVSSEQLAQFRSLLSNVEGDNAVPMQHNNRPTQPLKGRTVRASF

| Ki (Carbonic anhydrase 9 [1]) | inhibition (Carbonic anhydrase 9 [2]) | inhibition (Carbonic anhydrase 9 [3]) | inhibition (Carbonic anhydrase 9 [4]) | inhibition (Carbonic anhydrase 9 [5]) | inhibition [6] | inhibition [7] | inhibition [8] | inhibition [9] | Ki (Carbonic anhydrase 1) | SMILES |
| --- | --- | --- | --- | --- | --- | --- | --- | --- | --- | --- |
| 280 nM | – | – | – | – | – | – | – | – | – | NS(=O)(=O)c1ccc(NC(=O)N2CCN(c3ncccc3C(F)(F)F)CC2)cc1 |
| – | 37% | 41% | 52% | 55% | 34% | 45% | 49% | 51% | – | COc1cc(CC(=O)N2CCN(C(=O)Nc3ccc(S(N)(=O)=O)cc3)CC2)cc(OC)c1O |
| 320 nM | – | – | – | – | – | – | – | – | > 10000 nM | NS(=O)(=O)c1ccc(NC(=O)N2CCN(c3ccc(Cl)cc3)CC2)cc1 |
| 134 nM | – | – | – | – | – | – | – | – | – | NS(=O)(=O)c1ccc(NC(=O)N2CCN(c3nccc(C(F)(F)F)n3)CC2)cc1 |
| – | 36% | 47% | 48% | 52% | 30% | 47% | 49% | 52% | – | NS(=O)(=O)c1ccc(NC(=O)N2CCN(C(=O)COc3ccc(Cl)cc3)CC2)cc1 |
| – | 37% | 45% | 47% | 51% | 34% | 40% | 47% | 51% | – | NS(=O)(=O)c1ccc(NC(=O)N2CCN(C(=O)Cc3ccc(Cl)cc3)CC2)cc1 |
| 487 nM | – | – | – | – | – | – | – | – | – | NS(=O)(=O)c1ccc(NC(=O)N2CCN(c3ccccn3)CC2)cc1 |
| 462 nM | – | – | – | – | – | – | – | – | – | NS(=O)(=O)c1ccc(NC(=O)N2CCN(Cc3ccccc3)CC2)cc1 |
| 514 nM | – | – | – | – | – | – | – | – | – | NS(=O)(=O)c1ccc(NC(=O)N2CCN(c3ccc(C(F)(F)F)cn3)CC2)cc1 |
| 39.6 nM | – | – | – | – | – | – | – | – | – | NS(=O)(=O)c1ccc(NC(=O)N2CCN(Cc3ccc(Cl)cc3)CC2)cc1 |
| – | 36% | 47% | 49% | 55% | 34% | 46% | 49% | 51% | – | COc1ccc(CC(=O)N2CCN(C(=O)Nc3ccc(S(N)(=O)=O)cc3)CC2)cc1 |
| – | 22% | 35% | 53% | 55% | 36% | 46% | 49% | 51% | – | NS(=O)(=O)c1ccc(NC(=O)N2CCN(C(=O)COc3ccccc3)CC2)cc1 |
| – | 38% | 44% | 49% | 54% | 26% | 44% | 47% | 51% | – | NS(=O)(=O)c1ccc(NC(=O)N2CCN(C(=O)Cc3ccccc3)CC2)cc1 |
| 202 nM | – | – | – | – | – | – | – | – | – | N#Cc1cccnc1N1CCN(C(=O)Nc2ccc(S(N)(=O)=O)cc2)CC1 |
| – | 38% | 48% | 49% | 54% | 34% | 42% | 48% | 51% | – | NS(=O)(=O)c1ccc(NC(=O)N2CCN(C(=O)Cc3ccc(Cl)cc3Cl)CC2)cc1 |
| – | 33% | 49% | 51% | 56% | 29% | 43% | 48% | 51% | – | NS(=O)(=O)c1ccc(NC(=O)N2CCN(C(=O)COc3ccc(Cl)cc3Cl)CC2)cc1 |
| 237 nM | – | – | – | – | – | – | – | – | – | COc1ccccc1N1CCN(C(=O)Nc2ccc(S(N)(=O)=O)cc2)CC1 |
| 233 nM | – | – | – | – | – | – | – | – | – | NS(=O)(=O)c1ccc(NC(=O)N2CCN(c3cccc(Cl)c3)CC2)cc1 |
| – | 34% | 45% | 48% | 52% | 33% | 46% | 49% | 58% | – | NS(=O)(=O)c1ccc(NC(=O)N2CCN(C(=O)Cc3ccc(O)cc3)CC2)cc1 |
| 9.9 nM | – | – | – | – | – | – | – | – | – | NS(=O)(=O)c1ccc(NC(=O)N2CCN(c3ccc(F)cc3)CC2)cc1 |
| 39.6 nM | – | – | – | – | – | – | – | – | – | COc1cccc(N2CCN(C(=O)Nc3ccc(S(N)(=O)=O)cc3)CC2)c1 |
| 129 nM | – | – | – | – | – | – | – | – | – | CC(C)(C)c1ccc(N2CCN(C(=O)Nc3ccc(S(N)(=O)=O)cc3)CC2)cc1 |
| 268 nM | – | – | – | – | – | – | – | – | – | NS(=O)(=O)c1ccc(NC(=O)N2CCN(c3ccc(Cl)c(Cl)c3)CC2)cc1 |

| SMILES | Ki (Carbonic anhydrase 9 [1]) | inhibition (Carbonic anhydrase 9 [2]) | inhibition (Carbonic anhydrase 9 [3]) | inhibition (Carbonic anhydrase 9 [4]) | inhibition (Carbonic anhydrase 9 [5]) | inhibition [6] | inhibition [7] | inhibition [8] | inhibition [9] | Ki (Carbonic anhydrase 1) |
| --- | --- | --- | --- | --- | --- | --- | --- | --- | --- | --- |
| NS(=O)(=O)c1ccc(NC(=O)N2CCN(c3ccccc3)CC2)cc1 | 8.7 nM | – | – | – | – | – | – | – | – | – |
| COc1ccc(N2CCN(C(=O)Nc3ccc(S(N)(=O)=O)cc3)CC2)cc1 | 409 nM | – | – | – | – | – | – | – | – | – |
